Measurements taken from patent US20190359645A1, “2'3'-CYCLIC DINUCLEOTIDES COMPRISING CARBOCYCLIC NUCLEOTIDE” (Institute of Organic Chemistry and Biochemistry ASCR, V.V.I., priority 2018, published 2019).

target: WT STING (Homo sapiens, UniProt Q86WV6, H232R); test: Digitonin assay using 293T wtSTING-FL reporter cells; type: cell-based; set-up: host or cells: 293T (ATCC CRL-3216), stably transfected; also carries the 4xISRE firefly luciferase reporter; settings: 293T wtSTING-FL cells, digitonin buffer 30 min, then 5 h, ISRE firefly luciferase reporter; read-out: Digitonin assay EC50 WT STING
Excerpt: Two complementary oligonucleotides of the sequence […] […] […] […] (SEQ ID NO: 1) and […] […] (SEQ ID NO:2) containing four interferon-sensitive response elements (ISRE) were synthesized by Sigma Aldrich (Czech Republic, Prague). The oligonucleotides were mixed in equal molar amounts, hybridized, and cleaved by restriction endonucleases HindIII (cat. #. R^0104S, NEB, Ipswich, USA) and BglII (cat. # R^0144S, NEB, Ipswich, USA). Ultimately, they were ligated into plasmid pGL4.27 (cat. # E6651, Promega, Madison, USA) linearized with the same enzymes. As a result, the sequence with four ISRE sites was placed upstream of the minimum promoter of firefly luciferase reporter gene.
293T cells (cat. # CRL-3216, ATCC, Manassas, USA) were seeded a day before transfection at density 125,000 cells per cm^2 onto poly-D-lysine (cat. # P6407, Sigma Aldrich, Czech Republic) coated six well plates in antibiotic free DMEM with high glucose (cat. # D5796, Sigma Aldrich, Czech Republic) supplemented with 10% heat inactivated FBS (cat. # S1520, Biowest, Riverside, USA). On the day of transfection, 2.5 μg of the plasmid pUNO1-hSTING-WT (cat. # punol-hstingwt, InvivoGen, San Diego, USA,) encoding human wild type STING (WT STING) was diluted in 125 μL OptiMEM medium (cat. #31985062, ThermoFisher, Waltham, USA) and mixed with 125 μL of the same medium containing 12.5 μL of Lipofectamine 2000 (cat. #11668019, ThermoFisher, Waltham, USA). After 5 minutes incubation at room temperature (RT), 250 μL of the mixture was added dropwise to the cells in one well. Cells were incubated 36 hours at 37° C. with 5% CO2, and then detached with 0.05% Trypsin and 0.22 g/L EDTA (both cat. # L0941, Biowest, Riverside, USA).
Transfected cells were seeded onto poly-D-lysine coated six well plates at density 50,000 cells per 1 cm^2 in DMEM medium with high glucose containing 10% heat inactivated FBS, […] blasticidin (cat. # ant-bl-05, InvivoGen, San Diego, USA), 0.06 mg/ml Penicillin G and 0.1 mg/ml Streptomycin Sulfate (both cat. #. L0018, Biowest, Riverside, USA). The medium was replenished every 3-4 days until visible colonies of cells resistant to blasticidin were formed.
Blasticidin resistant cells stably expressing WT STING were further transfected with […] plasmid following the same procedure as described above. The transfected cells were selected for the resistance to 300 μg/mL hygromycin (cat. #. 10687010, ThermoFisher, Waltham, USA) in DMEM with high glucose containing 10% heat inactivated FBS, […] blasticidin, 0.06 mg/ml Penicillin G and 0.1 mg/ml Streptomycin Sulfate. Homogeneous culture of stably double transfected cells was prepared by limiting dilution of cells in 96 well plates and wells with cells were selected that originated from a single cell. These cells were expanded, and expression of WT STING was confirmed by western blot using monoclonal mouse anti STING antibodies (cat. #. MAB7169, 1:1000 dilution; […] cat. #. HAF007, 1:2000 dilution, both from R&D Systems, Minneapolis, USA), and by induction of firefly luciferase expression in the presence of 50 μM STING agonist 2′3′ cGAMP (cat. # tlrl-nacga23, InvivoGen, San Diego, USA). Genomic DNA from the transfected cells was amplified with primers pUNO1_Seq_F ([…]) (SEQ ID NO:3) and pUNO1_Seq_R ([…]) (SEQ ID NO:4) that were complementary to pUNO1 plasmid and the presence of WT STING gene in the transfected cells was confirmed by DNA sequencing.
293T wtSTING-FL cells were seeded at density of 250,000 cells per cm^2 onto 96 well poly-D-lysine coated plates in 100 μl DMEM with high glucose supplemented with 10% heat inactivated FBS. […]

Sequence of WT STING (Q86WV6 whole entry H232R): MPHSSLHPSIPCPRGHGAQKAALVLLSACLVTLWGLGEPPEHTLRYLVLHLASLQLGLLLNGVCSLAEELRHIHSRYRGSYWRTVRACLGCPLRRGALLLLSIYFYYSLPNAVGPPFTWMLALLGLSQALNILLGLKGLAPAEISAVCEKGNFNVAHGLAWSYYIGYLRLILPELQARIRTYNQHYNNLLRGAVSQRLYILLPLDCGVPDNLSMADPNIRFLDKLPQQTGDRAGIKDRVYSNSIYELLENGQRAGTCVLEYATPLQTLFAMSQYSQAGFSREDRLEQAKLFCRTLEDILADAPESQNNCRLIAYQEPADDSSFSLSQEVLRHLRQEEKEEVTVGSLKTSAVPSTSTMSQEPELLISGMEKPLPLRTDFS

SMILES | EC50 [nM]
Nc1ncnc2c1ncn2[C@@H]1O[C@@H]2COP(=O)(O)OC3C(O)[C@@H](COP(=O)(O)OC2C1O)C[C@H]3n1cnc2c(=O)[nH]cnc21 (stereo partly drawn) [Compound 121, (6R,8R,15R,17R)-8-(6-amino-9H-purin-9-yl)-3,9,12,18-tetrahydroxy-17-(6-oxo-6,9-dihydro-1H-purin-9-yl)-2,4,7,11,13-pentaoxa-3λ^5,12λ^5-diphosphatricyclo[13.2.1.0^6,10]octadecane-3,12-dione] | 500
Nc1nc2c(ncn2[C@@H]2C[C@@H]3COP(=O)(O)OC4C(N)[C@H](n5cnc6c(N)ncnc65)O[C@@H]4COP(=O)(O)OC2C3O)c(=O)[nH]1 (stereo partly drawn) [Compound 109, (6R,8R,15R,17R)-9-amino-17-(2-amino-6-oxo-6,9-dihydro-1H-purin-9-yl)-8-(6-amino-9H-purin-9-yl)-3,12,18-trihydroxy-2,4,7,11,13-pentaoxa-3λ^5,12λ^5-diphosphatricyclo[13.2.1.0^6,10]octadecane-3,12-dione] | 130
Nc1ncnc2c1c(I)cn2[C@@H]1O[C@@H]2COP(=O)(O)OC3C(O)[C@@H](COP(=O)(O)OC2C1O)C[C@H]3n1cnc2c(=O)[nH]cnc21 (stereo partly drawn) [Compound 124, (6R,8R,15R,17R)-8-{4-amino-5-iodo-7H-pyrrolo[2,3-d]pyrimidin-7-yl}-3,9,12,18-tetrahydroxy-17-(6-oxo-6,9-dihydro-1H-purin-9-yl)-2,4,7,11,13-pentaoxa-3λ^5,12λ^5-diphosphatricyclo[13.2.1.0^6,10]octadecane-3,12-dione] | 400
Nc1nc2c(ncn2[C@@H]2C[C@@H]3COP(=O)(O)OC4C(F)[C@H](n5cnc6c(N)nc(F)nc65)O[C@@H]4COP(=O)(O)OC2C3O)c(=O)[nH]1 (stereo partly drawn) [Compound 111, (6R,8R,15R,17R)-8-(6-amino-2-fluoro-9H-purin-9-yl)-17-(2-amino-6-oxo-6,9-dihydro-1H-purin-9-yl)-9-fluoro-3,12,18-trihydroxy-2,4,7,11,13-pentaoxa-3λ^5,12λ^5-diphosphatricyclo[13.2.1.0^6,10]octadecane-3,12-dione] | 30
Nc1ncnc2c1ncn2[C@@H]1O[C@@H]2COP(=O)(O)OC3C(O)[C@@H](COP(=O)(O)OC2C1O)C[C@H]3n1cnc2c(=O)[nH]cnc21 (stereo partly drawn) [Compound 120, (6R,8R,15R,17R)-8-(6-amino-9H-purin-9-yl)-3,9,12,18-tetrahydroxy-17-(6-oxo-6,9-dihydro-1H-purin-9-yl)-2,4,7,11,13-pentaoxa-3λ^5,12λ^5-diphosphatricyclo[13.2.1.0^6,10]octadecane-3,12-dione] | 30

Further lines, results first:

EC50 [nM] | SMILES
60 | Nc1ncnc2c1ncn2[C@@H]1O[C@@H]2COP(=O)(S)O[C@@H]3[C@H](F)[C@@H](COP(=O)(S)O[C@H]2[C@H]1F)C[C@H]3n1cnc2c(=O)[nH]cnc21 (single isomer, unassigned) [Compound 128c]
230 | CSc1ncnc2c1ncn2[C@@H]1O[C@@H]2COP(=O)(O)OC3C(O)[C@@H](COP(=O)(O)OC2C1O)C[C@H]3n1cnc2c(=O)[nH]c(N)nc21 (stereo partly drawn) [Compound 110, (6R,8R,15R,17R)-17-(2-amino-6-oxo-6,9-dihydro-1H-purin-9-yl)-3,9,12,18-tetrahydroxy-8-[6-(methylsulfanyl)-9H-purin-9-yl]-2,4,7,11,13-pentaoxa-3λ^5,12λ^5-diphosphatricyclo[13.2.1.0^6,10]octadecane-3,12-dione]
400 | Nc1ncc2ncn([C@@H]3O[C@@H]4COP(=O)(O)OC5C(O)[C@@H](COP(=O)(O)OC4C3O)C[C@H]5n3cnc4c(=O)[nH]cnc43)c2n1 (stereo partly drawn) [Compound 119, (6R,8R,15R,17R)-8-(2-amino-9H-purin-9-yl)-3,9,12,18-tetrahydroxy-17-(6-oxo-6,9-dihydro-1H-purin-9-yl)-2,4,7,11,13-pentaoxa-3λ^5,12λ^5-diphosphatricyclo[13.2.1.0^6,10]octadecane-3,12-dione]
